Work on `OCc1ccc(O[C@@H]2O[C@H](CO)[C@@H](O)[C@H](O)[C@H]2O)cc1` yielded a solubility (mole fraction) (in 1,4-dioxane, 288.15 K) of 0.00324, a solubility (mole fraction) (in 1,4-dioxane, 293.15 K) of 0.00373 and a solubility (mole fraction) (in 1,4-dioxane, 298.15 K) of 0.0043. The solubility (mole fraction) (in 1,4-dioxane, 303.15 K) was 0.00493, the solubility (mole fraction) (in 1,4-dioxane, 308.15 K) was 0.00562 and the solubility (mole fraction) (in 1,4-dioxane, 313.15 K) was 0.0063. The solubility (mole fraction) (in acetone, 273.15 K) was 0.00097, the solubility (mole fraction) (in acetone, 278.15 K) was 0.00117 and the solubility (mole fraction) (in acetone, 283.15 K) was 0.00142. It also gave a solubility (mole fraction) (in acetone, 288.15 K) of 0.00171, a solubility (mole fraction) (in acetone, 293.15 K) of 0.00199 and a solubility (mole fraction) (in acetone, 298.15 K) of 0.00233. The solubility (mole fraction) (in acetone, 303.15 K) was 0.00273, the solubility (mole fraction) (in acetone, 308.15 K) was 0.00318 and the solubility (mole fraction) (in acetone, 313.15 K) was 0.00368. For the same compound, the solubility (mole fraction) (in acetonitrile, 273.15 K) was 0.00066, the solubility (mole fraction) (in acetonitrile, 278.15 K) was 0.00076 and the solubility (mole fraction) (in acetonitrile, 283.15 K) was 0.00088. For the same compound, the solubility (mole fraction) (in acetonitrile, 288.15 K) was 0.001, the solubility (mole fraction) (in acetonitrile, 293.15 K) was 0.00115 and the solubility (mole fraction) (in acetonitrile, 298.15 K) was 0.0013. The solubility (mole fraction) (in acetonitrile, 303.15 K) was 0.00147, the solubility (mole fraction) (in acetonitrile, 308.15 K) was 0.00166 and the solubility (mole fraction) (in acetonitrile, 313.15 K) was 0.00188. It also gave a solubility (mole fraction) (in cyclohexane, 273.15 K) of 0.000383, a solubility (mole fraction) (in cyclohexane, 278.15 K) of 0.000624 and a solubility (mole fraction) (in cyclohexane, 283.15 K) of 0.000909. For the same compound, the solubility (mole fraction) (in cyclohexane, 288.15 K) was 0.00125, the solubility (mole fraction) (in cyclohexane, 293.15 K) was 0.0016 and the solubility (mole fraction) (in cyclohexane, 298.15 K) was 0.00213. The solubility (mole fraction) (in cyclohexane, 303.15 K) was 0.00261, the solubility (mole fraction) (in cyclohexane, 308.15 K) was 0.00326 and the solubility (mole fraction) (in cyclohexane, 313.15 K) was 0.00396. For the same compound, the solubility (mole fraction) (in cyclohexanone, 273.15 K) was 0.00128, the solubility (mole fraction) (in cyclohexanone, 278.15 K) was 0.00152 and the solubility (mole fraction) (in cyclohexanone, 283.15 K) was 0.00185. It also gave a solubility (mole fraction) (in cyclohexanone, 288.15 K) of 0.0022, a solubility (mole fraction) (in cyclohexanone, 293.15 K) of 0.00257 and a solubility (mole fraction) (in cyclohexanone, 298.15 K) of 0.00299. For the same compound, the solubility (mole fraction) (in cyclohexanone, 303.15 K) was 0.00344, the solubility (mole fraction) (in cyclohexanone, 308.15 K) was 0.00396 and the solubility (mole fraction) (in cyclohexanone, 313.15 K) was 0.00455. The solubility (mole fraction) (in ethanol, 273.15 K) was 0.00085, the solubility (mole fraction) (in ethanol, 278.15 K) was 0.00105 and the solubility (mole fraction) (in ethanol, 283.15 K) was 0.00129. It also gave a solubility (mole fraction) (in ethanol, 288.15 K) of 0.00157, a solubility (mole fraction) (in ethanol, 293.15 K) of 0.00188 and a solubility (mole fraction) (in ethanol, 298.15 K) of 0.0022. For the same compound, the solubility (mole fraction) (in ethanol, 303.15 K) was 0.00255, the solubility (mole fraction) (in ethanol, 308.15 K) was 0.00296 and the solubility (mole fraction) (in ethanol, 313.15 K) was 0.00337. For the same compound, the solubility (mole fraction) (in ethyl acetate, 273.15 K) was 0.00174, the solubility (mole fraction) (in ethyl acetate, 278.15 K) was 0.002 and the solubility (mole fraction) (in ethyl acetate, 283.15 K) was 0.00234. The solubility (mole fraction) (in ethyl acetate, 288.15 K) was 0.00274, the solubility (mole fraction) (in ethyl acetate, 293.15 K) was 0.00318 and the solubility (mole fraction) (in ethyl acetate, 298.15 K) was 0.00364. The solubility (mole fraction) (in ethyl acetate, 303.15 K) was 0.00418, the solubility (mole fraction) (in ethyl acetate, 308.15 K) was 0.00481 and the solubility (mole fraction) (in ethyl acetate, 313.15 K) was 0.00543. It also gave a solubility (mole fraction) (in isopropanol, 273.15 K) of 0.00114, a solubility (mole fraction) (in isopropanol, 278.15 K) of 0.00139 and a solubility (mole fraction) (in isopropanol, 283.15 K) of 0.00169. It also gave a solubility (mole fraction) (in isopropanol, 288.15 K) of 0.002, a solubility (mole fraction) (in isopropanol, 293.15 K) of 0.00235 and a solubility (mole fraction) (in isopropanol, 298.15 K) of 0.00271. The solubility (mole fraction) (in isopropanol, 303.15 K) was 0.00312, the solubility (mole fraction) (in isopropanol, 308.15 K) was 0.00356 and the solubility (mole fraction) (in isopropanol, 313.15 K) was 0.00403. It also gave a solubility (mole fraction) (in n-butanol, 273.15 K) of 0.0368, a solubility (mole fraction) (in n-butanol, 278.15 K) of 0.0395 and a solubility (mole fraction) (in n-butanol, 283.15 K) of 0.0423. The solubility (mole fraction) (in n-butanol, 288.15 K) was 0.0454, the solubility (mole fraction) (in n-butanol, 293.15 K) was 0.0486 and the solubility (mole fraction) (in n-butanol, 298.15 K) was 0.0521. It also gave a solubility (mole fraction) (in n-butanol, 303.15 K) of 0.0557, a solubility (mole fraction) (in n-butanol, 308.15 K) of 0.0595 and a solubility (mole fraction) (in n-butanol, 313.15 K) of 0.0633. For the same compound, the solubility (mole fraction) (in n-propanol, 273.15 K) was 0.00074, the solubility (mole fraction) (in n-propanol, 278.15 K) was 0.00094 and the solubility (mole fraction) (in n-propanol, 283.15 K) was 0.00115. For the same compound, the solubility (mole fraction) (in n-propanol, 288.15 K) was 0.00138, the solubility (mole fraction) (in n-propanol, 293.15 K) was 0.00165 and the solubility (mole fraction) (in n-propanol, 298.15 K) was 0.00194. It also gave a solubility (mole fraction) (in n-propanol, 303.15 K) of 0.00226, a solubility (mole fraction) (in n-propanol, 308.15 K) of 0.00262 and a solubility (mole fraction) (in n-propanol, 313.15 K) of 0.00301. The solubility (mole fraction) (in toluene, 273.15 K) was 0.00148, the solubility (mole fraction) (in toluene, 278.15 K) was 0.0018 and the solubility (mole fraction) (in toluene, 283.15 K) was 0.00212. The solubility (mole fraction) (in toluene, 288.15 K) was 0.00248, the solubility (mole fraction) (in toluene, 293.15 K) was 0.00288 and the solubility (mole fraction) (in toluene, 298.15 K) was 0.0033. The solubility (mole fraction) (in toluene, 303.15 K) was 0.00378, the solubility (mole fraction) (in toluene, 308.15 K) was 0.00431 and the solubility (mole fraction) (in toluene, 313.15 K) was 0.00493.

Reference: BigSolDB 2.1
